In general, EC50 refers to the concentration giving half of the maximal effect. Lower therefore signals an effect from little substance.

These results are taken from paper PMC6366974, “The curcumin analog EF24 is a novel senolytic agent” (Aging (Albany NY), 2019).

One experiment deals with WI-38 IR-SCs. The experiment can be described thus: ROS measurement (DHR staining, flow cytometry). Conditions: 2 µM, 3 h and 6 h, DHR MFI. The format is cell-based, human. Here is the method: (§1) WI-38 NCs and IR-SCs were incubated with vehicle or 2 µM EF24 for 3, 6, 24, or 72 h. After removal of suspension cells, adherent cells were detached using 0.25% Trypsin-EDTA at 37°C for 5 min. They were rinsed with DMEM once and then incubated with pre-warmed DMEM medium containing 1 µM dihydrorhodamine 123 (DHR, Cat. No. D23806, Thermo Fisher Scientific, Waltham, MA, USA) at 37°C for 30 min in dark. After washing in 4 mL DMEM with 100 ng/mL PI, cells were centrifuged immediately at 1,000 r.p.m. for 5 min to remove PI and re-suspended in DMEM medium for flow cytometry analysis. Mean fluorescence intensity (MFI) of PI negative cells was determined using the BD LSR II flow cytometer.
On the technique in general: In flow cytometry, cells or beads pass a laser one at a time.

The test system of another experiment is WI-38 NCs. In words: ROS measurement (DHR staining, flow cytometry). Type of experiment: cell-based, human. Conditions: 2 µM, 3 h and 6 h, DHR MFI. Here is the method:
as §1

Another experiment concerns HUVEC IR-SCs. The experiment can be described thus: Cell viability assay (flow cytometry, PI). The format is cell-based. To be noted: Homo sapiens, 72 h.
Experiment [1] has as its system WI-38 Ras-induced senescent cells (Ras-SCs). The experiment can be described thus: Cell viability assay (flow cytometry, PI). The format is cell-based, human. To be noted: 72 h. Here is the method: (§2) Human WI-38 fibroblasts (WI-38, Cat. No. CCL-75), human IMR-90 fibroblasts (IMR-90, Cat. No. CCL-186), human umbilical vein endothelial cells (HUVEC, Cat. No. CRL-1730), human renal epithelial cells (HREC, Cat. No. PCS-400-012) and human pre-adipocytes (Cat. No. PCS-210-010) were newly purchased from the American Type Culture Collection (ATCC, Manassas, VA, USA). WI-38 and IMR-90 cells were cultured in complete Dulbecco’s modified Eagle medium (DMEM, Cat. No. 12430054, Thermo Fisher Scientific, Waltham, MA, USA) supplemented with 10% heat-inactivated fetal bovine serum (FBS, Cat. No. S11150H, Atlanta Biologicals, Flowery Branch, GA, USA), 100 U/mL penicillin and 100 µg/mL streptomycin (Pen Strep, Cat. No. 15140122, Thermo Fisher Scientific, Waltham, MA, USA) in a humidified incubator at 37°C and 5% CO2. HUVEC were cultured in EGM-2 BulletKit (Cat. No. CC-3162, Lonza, Basel, Switzerland) containing basal medium supplemented with growth factors, cytokines and other supplements according to the manufacturer’s protocol. HREC were cultured in renal epithelial cell basal medium (Cat. No. PCS-400-030, ATCC, Manassas, VA, USA) supplemented with renal epithelial cell growth kit (Cat. No. PCS400040, ATCC, Manassas, VA, USA). Human pre-adipocytes were cultured in fibroblast basal medium (Cat. No. PCS-201-030, ATCC, Manassas, VA, USA) supplemented with fibroblast growth kit-low serum (Cat. No. PCS201041, ATCC, Manassas, VA, USA). EF24 (Cat. No. E8409) and HO-3867 (Cat. No. S7501) were purchased from Sigma-Aldrich (St. Louis, MO, USA) and Selleckchem (Houston, TX, USA), respectively. DIMC (Cat. No. 10009986) and 2-HBA (Cat. No. 11879) were both purchased from Cayman Chemical (Ann Arbor, MI, USA).
(§3) Three different methods were used for the induction of SCs, including replicative exhaustion, ionizing radiation and ectopic Ras expression as previously described. Briefly, low-passage WI-38 cells (< 25 passages), IMR-90 cells (< 25 passages), HUVEC (< 10 passages), HREC (< 10 passages) and pre-adipocytes (< 4 passages) were used as NCs or for the induction of senescence. To induce replicative senescence (Rep-SCs), WI-38 and IMR-90 fibroblasts, HUVEC, HREC and pre-adipocytes were subcultured until they stopped to divide and became permanently growth arrested senescence after 38 passages (WI-38), 38 passages (IMR-90), 22 passages (HUVEC), 30 passages (HREC) and 10 passages (pre-adipocytes), respectively. To induce SCs by ionizing radiation (IR-SCs) and ectopic expression of Ras (Ras-SCs), WI-38 NCs were treated as previously described.
(§4) Number of viable cells were quantified using flow cytometry as previously described with slight modifications. Specifically, NCs and SCs were incubated with vehicle (0.1% DMSO) or a test compound at indicated concentrations for 72 h. Following dissociation with 0.25% Trypsin-EDTA (Cat. No. 25200056, Thermo Fisher Scientific, Waltham, MA, USA) at 37°C for 5 min, the cells were harvested in 100 µl pre-cooled phosphate buffered saline (PBS, Cat. No. 20012027, Thermo Fisher Scientific, Waltham, MA, USA) containing 2% FBS and 100 ng/mL propidium iodide (PI, P4170, Sigma-Aldrich, St. Louis, MO, USA) and analyzed using flow cytometry (LSR II, BD Biosciences, San Jose, CA, USA). Percentage of viable cells were determined by counting the number of PI negative cells (viable cells) and then calculated as a ratio of control cells treated with vehicle. In addition, dose-response curves were generated for each compound, and the concentration for 50% of maximal effect (EC50 values) was calculated using GraphPad Prism 6.

Experiment [2] relates to WI-38 non-senescent cells (NCs). The experiment can be described thus: Cell viability assay (flow cytometry, PI). Type of experiment: cell-based, human. Conditions: for EC50: Homo sapiens, WI-38, 72 h. The procedure: as §2, §3, §4
Experiment [3] deals with WI-38 IR-induced senescent cells (IR-SCs). In words: Cell viability assay (flow cytometry, PI). The format is cell-based, human. Conditions: WI-38, 72 h; for EC50: Homo sapiens. Here is the method:
as §2, §3, §4

Another experiment concerns cancer cells. On the set-up: method as in PMID 15210154. Conditions: more potent than curcumin; cited from earlier work.
In experiment [4] the test system is BCL-XL, MCL-1 and BCL-2 mRNA. The experiment can be described thus: qPCR of mRNA levels in WI-38 cells. Type of experiment: cell-based, human. Conditions: WI-38 NCs and IR-SCs, 72 h. The procedure: The mRNA levels were measured with qPCR, as previously described. qPCR was run with TaqMan qPCR (Cat. No. 4444965, Thermo Fisher Scientific, Waltham, MA, USA) reagents and primers (Cat. No. 4331182, Thermo Fisher Scientific, Waltham, MA, USA).
Background: Real-time PCR tracks product formation cycle by cycle.

The subject of experiment [5] is IMR-90 fibroblasts Rep-SCs. The experiment can be described thus: Cell viability assay (flow cytometry, PI). The format is cell-based. To be noted: Homo sapiens, IMR-90, 72 h. The procedure:
as §2, §3, §4

For experiment [6], the system named is WI-38 replication-exhausted senescent cells (Rep-SCs). In words: Cell viability assay (flow cytometry, PI). Type of experiment: cell-based. To be noted: Homo sapiens; WI-38, 72 h, Table 2. The procedure:
as §2, §3, §4

The subject of a further experiment is pre-adipocytes Rep-SCs. In words: Cell viability assay (flow cytometry, PI). Type of experiment: cell-based. To be noted: Homo sapiens; Pre-adipocyte, 72 h. The procedure:
as §2, §3, §4

A further experiment has as its system pre-adipocytes NCs. The experiment can be described thus: Cell viability assay (flow cytometry, PI). The format is cell-based. Conditions: Homo sapiens; Pre-adipocyte, 72 h. The procedure:
as §2, §3, §4

In the case of `O=C1/C(=C/c2ccccc2F)CNC/C1=C\c1ccccc1F` [EF24], in the experiment with WI-38 IR-SCs, the “ROS production in IR-SCs” value is recorded as “did not increase ROS production”. Also, the “ROS production in NCs” value in the experiment with WI-38 NCs is recorded as “did not increase ROS production”. Further, the EC50 was found to be 2.09 µM in the experiment on HUVEC IR-SCs; 4.32 µM in experiment [2] (Table 2); 4.69 µM in experiment [2] (WI-38 NCs, 72 h, Table 1 screen of curcumin analogs); 1.74 µM in experiment [3] (Table 2); 1.62 µM in experiment [3] (WI-38 IR-SCs, 72 h, Table 1 screen of curcumin analogs); 0.33 µM in experiment [5]. For the same compound, the EC50 was found to be 1.26 µM in [6], 4.6 µM in the experiment with pre-adipocytes Rep-SCs and 8.92 µM with pre-adipocytes NCs. The “sensitivity of WI-38 Ras-SCs compared with Rep-SCs and IR-SCs” value in experiment [1] was “highest sensitivity”. In [2] (below 4 μM, 72 h), the “effect on the cell viability of WI-38 NCs” value is listed as “minimal effect”. The “selective toxicity against IR-SCs versus NCs (viability)” value in [3] is listed as “lesser toxicities to NCs”. In addition, the “potency in inducing cancer cell death relative to curcumin” value in the experiment on cancer cells is 10 fold. In addition, the “BCL-XL, MCL-1 and BCL-2 mRNA levels” value in experiment [4] is listed as “did not observe any significant changes”.
